Measured values as given in patent publication US20260315499A1, “2'- {HETEROCYCLYL (ARYL/ALKYL) METHYL} - CANNABIDIOL COMPOUNDS AND PROCESS FOR PREPARATION THEREOF” (COUNCIL OF SCIENTIFIC & INDUSTRIAL RESEARCH, priority 2023, published 2026).

How the values were obtained:
[1] = Cell viability assay in differentiated neuronal cells (MTT), SHSY5Y; format: cell-based; conditions: human, read-out: % Cell viability ± SD, SHSY5Y
From the text: (§1) In the present disclosure outlined herein, a focused library of cannabidiol analogues were studied for possible neuro-protective potential employing cell line-based stress model systems which mimic the biological stress conditions in vitro (J Cell Biochem., 2018, 119(8), 6482-6491).
(§2) Human neuroblastoma cells (SHSY5Y) and mouse neuroblastoma cells (N2A) were procured from American Type Culture Collection (ATCC). SHSY5Y cell cultures were maintained in DMEM F12 (Invitrogen) whereas N2A were cultured in DMEM (Invitrogen) with 10% Fetal Bovine Serum (Gibco) medium, subjected to differentiation to acquire neuronal morphology (employing differentiation media DMEM-F12, 3-5% FBS, (For differentiation, low concentration of FBS was used) and 50 μM retinoic acid). Differentiated cells were later seeded into 96 well plates, at a density of 1×10^4 before being incubated for 48 hrs with the synthesized library. The exhausted culture media was substituted with new culture media containing 0.5 mg/ml MTT dye. Eventually, the OD at 490 nm excitation was measured using a 96-well plate reader. The proportion of viable cells was determined as percentage of absorbance of untreated cultures relative to control.

[2] = Cell viability assay in differentiated neuronal cells (MTT), N2A; format: cell-based; conditions: mouse, read-out: % Cell viability ± SD, N2A
From the text: as §1, §2

[3] = Cell viability assay in macrophage RAW264.7 cells (MTT); format: cell-based; conditions: mouse, read-out: % cell viability ± SD; for viability at 24 h, 5 µM: RAW264.7, 5 μM; for viability at 24 h, 10 µM: RAW264.7, 10 μM
Experimental: RAW264.7 cells were seeded in 96-well cell culture plates at a density of 1×10^4 cells per well and incubated overnight at 37° C. with 5% CO2. Next day, the cells were treated with CBD or its derivatives at 5 μM and/or 10 μM concentration for 24 hrs. The MTT dye (2.5 mg/ml, 20 μL) was added to each well 4 hrs before termination (Molecules. 2022, 27, 8068). After 4 hrs of incubation with MTT, the supernatant was discarded, and the formazan crystals were dissolved by adding 100 μL DMSO. The absorbance was recorded at 540 nm on microplate reader (Tecan Infinite Pro).

[4] = test system: nitric oxide (NO) production in RAW264.7 macrophages; assay: In vitro anti-inflammatory activity: nitric oxide production (Griess) in LPS-exposed RAW264.7 macrophages; format: cell-based, mouse; conditions: for inhibition at 5 µM / inhibition at 10 µM: Mus musculus, RAW264.7, read-out: % NO Inhibition ± SD; for inhibition at 5 µM / inhibition at 10 µM / % NO inhibition: LPS 24 hrs; for % NO inhibition: concentration not given
Experimental: Measurement of Nitric oxide: RAW264.7 macrophages were seeded in 96-well plates with a density of 0.5×10^5 cells/well and incubated overnight at 37° C. in a 5% CO2 atmosphere. The cells were treated with different concentration of CBD and its analogues and exposed to LPS for 24 hrs. For nitric oxide (NO) determination, the cell culture supernatant was taken and mixed with equal volume of Griess reagent in another 96 well plate at room temperature (Biomed Pharmacother., 2017, 92, 175-186). The absorbance was measured at 540 nm. The final calculations were determined on a NaNO2 standard curve.

[5] = test system: differentiated SHSY5Y cell cultures; assay: Neuroprotective potential in differentiated SHSY5Y after 96 hrs, concentration series with and without corticosterone; format: cell-based, human; conditions: DHF 5 nM + Cort 400 μM, 96 hrs
From the text: Furthermore, A1 intervention in presence of corticosterone evidenced neuroprotective effect against corticosterone induced impairment and cell death.

Anti BDNF = assay: Survival pathway protein expression by western blotting in SHSY5Y; format: cell-based, human; conditions: 6 hrs
Experimental: (§3) Here, A1 was tested to find its role in eliciting survival pathway proteins in differentiated human neuroblastoma cells in concentration and time dependent manner.
(§4) To investigate the effect of A1 on the survival proteins, SHSY5Y cell cultures were treated with different concentrations for 6 hrs and analyzed for the expression of survival proteins, including p-Erk 44/42, p-AKT 473, Anti BDNF, and p TrkB 816 and p TrKB 515 by western blotting.

p TrkB 515 [6] = assay: as above; format: cell-based, human; conditions: DHF 5 nM, 6 hrs
Experimental: as §3, §4

p TrkB 816 [7] = assay: as above; format: cell-based, human; conditions: DHF 5 nM, 6 hrs
Experimental: as §3, §4

p-Erk 44/42 = assay: as above; format: cell-based, human; conditions: 6 hrs
Experimental: as §3, §4

p-AKT 473 = assay: as above; format: cell-based, human; conditions: 6 hrs
Experimental: as §3
To investigate the effect of A1 on the survival proteins, […] of survival proteins, including p-Erk 44/42, p-AKT 473, Anti BDNF, and p TrkB 816 and p TrKB 515 by western blotting.

[8] = test system: differentiated SHSY5Y cell cultures; assay: Neuroprotective potential in differentiated SHSY5Y after 96 hrs, concentration series with and without corticosterone; format: cell-based, human; conditions: DHF 5 nM, without Cort, 96 hrs
p TrkB 816 [9] = assay: Survival pathway protein expression by western blotting in SHSY5Y; format: cell-based, human; conditions: DHF/Cort., 6 hrs
p TrkB 515 [10] = assay: as above; format: cell-based, human; conditions: DHF/Cort., 6 hrs

Molecule	viability at 48 h, 20 µM [1] [%]	viability at 48 h, 20 µM [2] [%]	viability at 24 h, 5 µM [3] [%]	viability at 24 h, 10 µM [3] [%]	inhibition at 5 µM [4] [%]	inhibition at 10 µM [4] [%]	further results
C=C(C)[C@@H]1CCC(C)=C[C@H]1c1c(O)cc(CCCCC)c(CN2CCN(C)CC2)c1O [A8, 2′-{(4-methylpiperazin-1-yl)methyl}-cannabidiol]	89.4 ± 1.7	93.3 ± 0.39	94.7 ± 2.7	87.1 ± 1.9	10.7 ± 2.3	19.6 ± 3.2	
C=C(C)[C@@H]1CCC(C)=C[C@H]1c1c(O)cc(CCCCC)c(CN2CCN(C(C)=O)CC2)c1O [A11, 2′-[{4-(piperazin-1-yl)ethan-1-one}methyl]-cannabidiol]	101 ± 3.48	102 ± 1.53	93.3 ± 0.4	91.6 ± 0.2	15.6 ± 1.7	31.4 ± 3.6	% NO inhibition [4]: more than 25%
C=C(C)[C@@H]1CCC(C)=C[C@H]1c1c(O)cc(CCCCC)c(CN2CCC(O)CC2)c1O [A4, 2′-{(4-hydroxypiperidin-1-yl)methyl}-cannabidiol]	97.28 ± 0.54	97.71 ± 0.81	93.8 ± 1.14	90.6 ± 0.7	11.4 ± 2.9	20.8 ± 2.5	% NO inhibition [4]: greater than 20%
C=C(C)[C@@H]1CCC(C)=C[C@H]1c1c(O)cc(CCCCC)c(CN2CCN(c3ncccn3)CC2)c1O [A15, 2′-[{4-(pyrimidin-2-yl)piperazin-1-yl}methyl]-cannabidiol]	81.8 ± 1.17	85.2 ± 1.25	93.4 ± 1.1	89.9 ± 0.9	4.8 ± 0.02	14.5 ± 0.6	
C=C(C)[C@@H]1CCC(C)=C[C@H]1c1c(O)cc(CCCCC)c(CN2CCC(Cc3ccccc3)CC2)c1O [A7, 2′-{(4-benzylpiperidin-1-yl)methyl}-cannabidiol]	102 ± 1.57	101.7 ± 0.47	90.1 ± 1.3	93 ± 1.7	8.4 ± 3.1	16 ± 1.2	
C=C(C)[C@@H]1CCC(C)=C[C@H]1c1c(O)cc(CCCCC)c(CN2CCC(c3ccccc3)CC2)c1O [A5, 2′-{(4-phenylpiperidin-1-yl)methyl}-cannabidiol]	94.5 ± 1.12	90.6 ± 1.85	94.4 ± 1.3	90.4 ± 0.9	5.8 ± 2.4	12.3 ± 3.1	
C=C(C)[C@@H]1CCC(C)=C[C@H]1c1c(O)cc(CCCCC)c(CNc2cnccn2)c1O [A16, 2′-{(pyrazin-2-ylamino)methyl}-cannabidiol]	86.97 ± 0.12	89.85 ± 0.03	93.6 ± 1.3	87.7 ± 0.8	11.5 ± 1.2	18.3 ± 1	
C=C(C)[C@@H]1CCC(C)=C[C@H]1c1c(O)cc(CCCCC)c(CN2CCN(c3ccccc3)CC2)c1O [A12, 2′-{(4-phenylpiperazin-1-yl)methyl}-cannabidiol]	95.9 ± 3.39	96.2 ± 2.32	94.5 ± 1	92.7 ± 0.5	8.6 ± 0.93	11.4 ± 3.5	
C=C(C)[C@@H]1CCC(C)=C[C@H]1c1c(O)c(CN2CCOCC2)c(CCCCC)c(CN2CCOCC2)c1O [A1′, 2′,4′-{bis-(morpholin-1-ylmethyl)}-cannabidiol]	93.6 ± 2.01	94.7 ± 1.86	94.4 ± 0.9	92.4 ± 1.2	15.6 ± 2.5	23.4 ± 3.8	% NO inhibition [4]: greater than 20%
C=C(C)[C@@H]1CCC(C)=C[C@H]1c1c(O)cc(CCCCC)c(CN2CCN(CC)CC2)c1O [A9, 2′-{(4-ethylpiperazin-1-yl)methyl}-cannabidiol]	91.67 ± 0.56	94.3 ± 1.3	94.2 ± 2.1	87.6 ± 0.1	14.6 ± 3.3	27.9 ± 0.4	% NO inhibition [4]: more than 25%
O=c1cc(-c2ccccc2)oc2c(O)c(O)ccc12 [DHF, reference compound]							Cell viability [5]: 104.3; Relative Protein Expression Anti BDNF (Anti BDNF; DHF 5 nM): 1.03; Relative Protein Expression Anti BDNF (Anti BDNF; DHF/Cort.): 0.53; Relative Protein Expression p TrkB 515 (p TrkB 515 [6]): 2.43; Relative Protein Expression p TrkB 816 (p TrkB 816 [7]): 1.55; Relative Protein Expression p ERK 44/42 (p-Erk 44/42; DHF 5 nM): 5.28; Relative Protein Expression p ERK 44/42 (p-Erk 44/42; DHF/Cort.): 5.00; Relative Protein Expression PAKT 473 (p-AKT 473; DHF 5 nM): 1.42; Relative Protein Expression PAKT 473 (p-AKT 473; DHF/Cort.): 0.96; Cell viability [8]: 113.7; Relative Protein Expression p TrkB 816 (p TrkB 816 [9]): 0.71; Relative Protein Expression p TrkB 515 (p TrkB 515 [10]): 2.11
C=C(C)[C@@H]1CCC(C)=C[C@H]1c1c(O)cc(CCCCC)c(CN2CCCCC2)c1O [A2, 2′-(piperidin-1-ylmethyl)-cannabidiol]	95.8 ± 1.1	96.9 ± 3.77	65.9 ± 6.5	61.7 ± 8.1			
C=C(C)[C@@H]1CCC(C)=C[C@H]1c1c(O)cc(CCCCC)c(CN2CCC(C(C)C)CC2)c1O [A3, 2′-{(4-isopropylpiperidin-1-yl)methyl}-cannabidiol]	103 ± 2.25	99.7 ± 0.42	92.8 ± 0.9	89.9 ± 1.2	4.9 ± 1.4	10.7 ± 2.1	
C=C(C)[C@@H]1CCC(C)=C[C@H]1c1c(O)cc(CCCCC)c(CN2CCC(C(F)(F)F)CC2)c1O [A6, 2′-[{4-(trifluoromethyl)piperidin-1-yl}methyl]-cannabidiol]	27 ± 2.02	25.3 ± 1.47	94.1 ± 1.8	92 ± 1.1	7.6 ± 3	11.8 ± 1.9	
C=C(C)[C@@H]1CCC(C)=C[C@H]1c1c(O)cc(CCCCC)c(CN2CCN(c3ccc(Cl)cc3)CC2)c1O [A14, 2′-[{4-(4-chlorophenyl)piperazine}methyl]-cannabidiol]	90.5 ± 0.14	95.9 ± 4.04	95.2 ± 0.7	89.8 ± 1.1	8.5 ± 1.7	14.2 ± 3.8	
Lipopolysaccharide [LPS, reference compound]							% NO Inhibition ± SD ([4]; LPS alone 1 μg/ml (0% reference)): 0%
C=C(C)[C@@H]1CCC(C)=C[C@H]1c1c(O)cc(CCCCC)c(CN2CCN(C3CC3)CC2)c1O [A13, 2′-{(4-cyclopropylpiperazin-1-yl)methyl}-cannabidiol]	96.2 ± 4.87	97.2 ± 3.51	89.3 ± 2	93.9 ± 4.3	12 ± 1.7	27.3 ± 2.6	% NO inhibition [4]: more than 25%
C=C(C)[C@@H]1CCC(C)=C[C@H]1c1c(O)cc(CCCCC)c(CN2CCN(CCO)CC2)c1O [A10, 2′-[{4-(2-hydroxyethyl)piperazin-1-yl}methyl]-cannabidiol]	98.1 ± 2.25	96 ± 2.17	97.5 ± 1.7	95 ± 2.6	48.9	68.3	
